Assay results reported in patent US7235557B2, “Compounds and their uses” (MGI GP, Inc., priority 2000, dated 2007).
pIC50: −log10 of the molar value.

What follows are molecules tested against T1, purified recombinant human PARP (Homo sapiens, UniProt P09874) (assay: PARP enzyme assay (IC50)). Details: IC50 (μM), approximate IC50 values, [3H]NAD.
T1 construct: purchased Trevigan (Gaithersburg, Md.)
Format: biochemical
Method: The reaction is initiated by adding enzyme and incubating the mixture at 25° C. After 2 minutes of incubation, the reaction is terminated by adding 500 microliters of ice cold 30% (w/v) trichloroacetic acid. The precipitate formed is transferred onto a glass fiber filter Packard Unifilter-GF/C) and washed three times with 70% ethanol. After the filter is dried, the radioactivity is determined by scintillation counting.

T1 sequence (P09874 whole entry): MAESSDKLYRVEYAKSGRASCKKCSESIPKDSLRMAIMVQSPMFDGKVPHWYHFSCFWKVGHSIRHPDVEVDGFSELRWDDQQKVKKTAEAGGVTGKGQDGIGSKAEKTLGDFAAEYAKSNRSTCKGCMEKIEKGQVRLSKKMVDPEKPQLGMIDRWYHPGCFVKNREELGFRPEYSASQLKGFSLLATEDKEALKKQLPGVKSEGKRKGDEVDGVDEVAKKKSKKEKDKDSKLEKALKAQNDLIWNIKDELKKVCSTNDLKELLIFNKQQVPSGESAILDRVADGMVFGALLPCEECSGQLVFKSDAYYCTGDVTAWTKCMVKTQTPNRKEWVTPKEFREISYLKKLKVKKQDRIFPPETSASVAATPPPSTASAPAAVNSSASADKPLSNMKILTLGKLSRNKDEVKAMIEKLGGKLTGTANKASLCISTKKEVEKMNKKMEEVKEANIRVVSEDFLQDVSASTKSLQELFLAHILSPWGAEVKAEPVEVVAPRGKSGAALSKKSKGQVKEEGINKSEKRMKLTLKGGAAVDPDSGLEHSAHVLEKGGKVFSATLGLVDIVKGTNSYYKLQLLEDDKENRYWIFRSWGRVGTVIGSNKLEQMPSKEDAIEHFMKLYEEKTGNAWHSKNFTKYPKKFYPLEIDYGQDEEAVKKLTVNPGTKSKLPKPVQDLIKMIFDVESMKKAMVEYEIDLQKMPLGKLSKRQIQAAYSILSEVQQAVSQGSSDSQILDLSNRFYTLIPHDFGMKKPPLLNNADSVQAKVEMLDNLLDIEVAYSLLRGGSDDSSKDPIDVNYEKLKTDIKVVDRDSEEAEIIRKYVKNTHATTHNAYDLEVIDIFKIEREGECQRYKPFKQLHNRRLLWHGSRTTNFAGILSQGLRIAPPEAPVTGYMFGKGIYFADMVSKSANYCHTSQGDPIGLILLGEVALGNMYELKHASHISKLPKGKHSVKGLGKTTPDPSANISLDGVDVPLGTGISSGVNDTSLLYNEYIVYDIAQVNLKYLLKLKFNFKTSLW

Row | SMILES | IC50 [µM]
1 | O=C1NCCn2c(Cc3ccccc3)nc3cccc1c32 | 0.108
2 | CN(Cc1ccccc1)Cc1nc2cccc3c2n1CCNC3=O [drawing 162] | 0.088
3 | O=c1[nH]c2ccc(N3C[C@@H]4C[C@H]3CN4)nc2c2ccccc12 | 0.042

Same assay, conditions: approximate IC50 values, [3H]NAD, read-out: IC50

Row | SMILES | pIC50
4 | COC1CNC(=O)c2cccc3c2c1cn3C (centres unmarked) | 5.34
5 | Cn1c(-c2ccccc2)c2c3c(cccc31)C(=O)NCC2=O | 7.24
6 | O=C1NCCn2c(O)nc3cccc1c32 | 5.85
7 | Cn1cc2c3c(cccc31)C(=O)NN=C2 | 6.84
8 | O=C1NCCc2c(Br)[nH]c3cccc1c23 | 7.29
9 | O=C1NC=Cc2c[nH]c3cccc1c23 | 6.79
10 | O=C1NCCn2c(-c3cccc(C(=O)N4CC5CC4CN5Cc4ccccc4)c3)nc3cccc1c32 (centres unmarked) | 6.39
11 | O=C(CN1CCC(N2CCCC2)CC1)Nc1cnc2c(c1)[nH]c(=O)c1ccccc12 | 6.87
12 | O=C1NCCn2c(CN3CCN(Cc4ccc5c(c4)OCO5)CC3)nc3cccc1c32 | 6.92
13 | CCC(=O)Nc1cnc2c(c1)[nH]c(=O)c1ccccc12 | 6.95
14 | CN(CCC1CCCN1C)C(=O)c1cccc(-c2nc3cccc4c3n2CCNC4=O)c1 (centres unmarked) | 5.91
15 | CCN(CC)CCCNC(=O)c1cccc(-c2nc3cccc4c3n2CCNC4=O)c1 | 6.75
16 | CC(C)(C)OC(=O)n1cc2c3c(cccc31)C(=O)NCC2 | 4.70
17 | O=C1NCCn2c(-c3ccc(-c4ccccc4Cl)o3)nc3cccc1c32 | 6.84
18 | CC(C)(C)OC(=O)Cn1c(Br)c2c3c(cccc31)C(=O)NN=C2 | 4.62
19 | CN(Cc1nc2cccc3c2n1CCNC3=O)c1ccccc1 | 6.55
20 | O=c1[nH]c2ccc(NCCN3CCOCC3)nc2c2ccccc12 | 6.47
21 | CC(=O)OCc1ccc(-c2nc3cccc4c3n2CCNC4=O)o1 | 7.17
22 | O=C1NCCN2CCc3cccc1c32 | 5.62
23 | CC(C)(C)OC(=O)[C@@H]1CCCN1Cc1nc2cccc3c2n1CCNC3=O | 6.46
24 | O=C1NN=C(c2ccccc2)c2c[nH]c3cccc1c23 | 7.68
25 | O=C1NCCn2c(CN(Cc3ccccc3)Cc3ccccc3)nc3cccc1c32 | 6.66
26 | Cc1ccc(-c2nc3cccc4c3n2CCNC4=O)cc1 | 6.96
27 | CCN(CC)CC1=NNC(=O)c2cccc3[nH]cc1c23 | 7.47

Row | SMILES | pIC50
28 | CN1CCN(CC2=NNC(=O)c3cccc4[nH]cc2c34)CC1 | 7.43
29 | O=C(O)c1ccc(-c2nc3cccc4c3n2CCNC4=O)cc1 | 5.92
30 | O=C1NCCn2c(-c3cc(O)c(O)c(O)c3)nc3cccc1c32 | 6.49
31 | Cn1cc2c3c(cccc31)C(=O)NCC2O (centres unmarked) | 6.10
32 | O=C1CNC(=O)c2cccc3[nH]cc1c23 | 7.46
33 | CN(C)CCN(C)Cc1nc2cccc3c2n1CCNC3=O | 6.54
34 | O=C(NCCN1CCCCC1)c1cccc(-c2nc3cccc4c3n2CCNC4=O)c1 | 6.42
35 | O=C1NCCn2c(Cn3ccnc3)nc3cccc1c32 | 6.13
36 | O=C1NCCn2c(COCc3ccccc3)nc3cccc1c32 | 6.36
37 | O=C1NCCn2c(CN3CCCCCCC3)nc3cccc1c32 | 6.22
38 | O=C1NN=Cn2cnc3cccc1c32 | 4.70
39 | O=C1NCCn2c(CN3CC4CC3CN4Cc3ccccc3)nc3cccc1c32 (centres unmarked) | 6.94
40 | CCOC(=O)[C@@H]1C[C@H]1c1nc2cccc3c2n1CCNC3=O | 6.97
41 | O=C1NCC(c2ccccc2)c2c[nH]c3cccc1c23 (centres unmarked) | 6.75
42 | O=C1NCC(c2ccc(F)cc2)c2c[nH]c3cccc1c23 (centres unmarked) | 6.37
43 | CCN(CC)Cc1nc2cccc3c2n1CCNC3=O | 6.27
44 | O=C1NCCn2c(-c3cccc(Br)c3)nc3cccc1c32 | 6.97
45 | O=C1NN=Cc2c(Br)n(Cc3ccccc3)c3cccc1c23 | 4.70
46 | CN(Cc1nc2cccc3c2n1CCNC3=O)C1CCCCC1 | 6.34
47 | Cc1cccc(-c2nc3cccc4c3n2CCNC4=O)c1 | 7.01
48 | CC(C)(C)OC(=O)N1CCN(C(=O)c2cccc(-c3nc4cccc5c4n3CCNC5=O)c2)CC1 | 6.23
49 | COc1ccc(N(C)Cc2nc3cccc4c3n2CCNC4=O)cc1 | 6.92
50 | O=C1NCCn2c(C=C(c3ccccc3)c3ccccc3)nc3cccc1c32 | 6.48
